In US8247579B2, “Spirocyclic tetronic acid derivatives” (Bayer Cropscience AG, priority 2007, dated 2012):

Columns and labels:
[1] = Determination of the logP values by HPLC (EEC Directive 79/831 Annex V.A8); format: physicochemical; details: reversed-phase C18 HPLC column, reversed-phase C18, 43° C., acidic range (pH 2.3)
Protocol: Determination of the LogP Values The logP values given in the table were determined in accordance with EEC Directive 79/831 Annex V .A8 by HPLC (High Performance Liquid Chromatography) on a reversed-phase column (C18). Temperature: 43° C. Mobile phases for the determination in the acidic range (pH 2.3): 0.1% aqueous phosphoric acid, acetonitrile; linear gradient from 10% acetonitrile to 90% acetonitrile The calibration was carried out using unbranched alkan-2-ones (having 3 to 16 carbon atoms) with known logP values (determination of the logP values by the retention times using linear interpolation between two successive alkanones).

[2] = tested on: mixed thrips population (Frankliniella occidentalis); assay: Frankliniella occidentalis (FRANOC spray treatment); format: in vivo; details: bean leaf disks
Protocol: Frankliniella occidentalis (FRANOC Spray Treatment)
If addition of ammonium salts is required, these are added by pipette in a concentration of 1000 ppm after dilution of the respective finished solution of the preparation.

[3] = tested on: larvae of the mustard beetle (Phaedon cochleariae); assay: Phaedon test (PHAECO spray treatment); details: application rate of 100 g/ha, Chinese cabbage discs
[4] = tested on: Tetranychus urticae, resistant; assay: Tetranychus urticae (TETRUR RAUS) spray test, resistant mites on bush bean plants; format: in vivo; details: concentration of 5 ppm, spraying
Protocol: Tetranychus urticae (TETRUR RAUS)
Bush bean plants (Phaseolus vulgaris) infested with a mixed population of resistant greenhouse red spider mites (Tetranychus urticae, resistant) are treated by spraying with the active compound preparation of the desired concentration.
(§1) After the desired period of time, the kill in % is determined.

[5] = tested on: Green peach aphid (Myzus persicae); assay: Myzus persicae test (MYZUPE), dip treatment of cabbage leaves; format: in vivo; details: 100 ppm
Protocol: Myzus persicae Test (MYZUPE)
(§2) If addition of ammonium salts, penetrants or ammonium salts and penetrants is required, these are added by pipette in a concentration of 1000 ppm after dilution of the respective finished solution of the preparation.
Cabbage leaves (Brassica oleracea) which are heavily infested by the Green peach aphid (Myzus persicae) are treated by being dipped into the active compound preparation of the desired concentration.
as §1

[6] = tested on: greenhouse red spider mite (Tetranychus urticae sensitive); assay: Tetranychus test, OP-resistant/dip treatment (TETRUR); format: in vivo; details: dip
Protocol: Tetranychus Test, OP-Resistant/Dip Treatment (TETRUR)
as §2

chromatographic logP [1]	SMILES	effect in % (thrips killed) ([2]; application rate of 500 g/ha) [%]	effect in % (thrips killed) ([2]; application rate of 100 g/ha) [%]	effect in % (beetle larvae killed) [3] [%]	kill in % [4] [%]	MYZUPE % 6 d (kill in %) [5] [%]	TETRUR % 7 d (effect in %) ([6]; 0.78125 ppm) [%]	TETRUR % 7 d (effect in %) ([6]; 1.5625 ppm) [%]	TETRUR % 7 d (effect in %) ([6]; 3.125 ppm) [%]
6.94	Cc1cc(C)c(C2=C(OC(=O)CC34CC5CC(CC(C5)C3)C4)C3(CCCC3)OC2=O)c(C)c1 [Example I-1]	80							
3.85	Cc1cc(C)c(C2=C(OC(=O)CC3(C)OCCO3)C3(CCCC3)OC2=O)c(C)c1 [Example I-2]		63	67					
4.45	COC(C)(C)CC(=O)OC1=C(c2c(C)cc(C)cc2C)C(=O)OC12CCCC2 [Example I-5]					55	30	50	90

The remaining lines, values behind:

SMILES	chromatographic logP [1]	effect in % (thrips killed) ([2]; application rate of 500 g/ha) [%]	effect in % (thrips killed) ([2]; application rate of 100 g/ha) [%]	effect in % (beetle larvae killed) [3] [%]	kill in % [4] [%]	MYZUPE % 6 d (kill in %) [5] [%]	TETRUR % 7 d (effect in %) ([6]; 0.78125 ppm) [%]	TETRUR % 7 d (effect in %) ([6]; 1.5625 ppm) [%]	TETRUR % 7 d (effect in %) ([6]; 3.125 ppm) [%]
CCC(C)(C)CC(=O)OC1=C(c2c(C)cc(C)cc2C)C(=O)OC12CCCC2 [Example I-3]					97				
Cc1cc(C)c(C2=C(OC(=O)CC(C)(C)C)C3(CCCC3)OC2=O)c(C)c1 [spiromesifen, reference compound]		0	0	33	30	30	0	30	50
